Source: article PMC6640931 (ACS Omega, 2017)
Several values for one entry are separate records, joined by “and”; a condition that tells them apart may be missing. Identical values can stand only once.

What was measured:
[1] = cited from earlier work
[2] = cited from earlier work; remark: listed apart in the source
[3] = Thermogravimetric analysis; format: physicochemical; details: under nitrogen, 5 °C/min
[4] = Solubility in simulated body fluids; format: physicochemical
[5] = Equilibrium solubility in deionized water; details: for solubility, acyclovir active: DI water (pH 6.92), room temperature; for solubility: DI water (pH = 6.92)

SMILES | T5% (decomposition of 5% of the sample), TGA [3] | solubility, acyclovir active [5] | solubility [5] | also measured
CC(C)[C@H](N)C(=O)OCCOCn1cnc2c(=O)[nH]c(N)nc21 [valacyclovir] |  |  |  | oral bioavailability [1]: ca. 55%; oral bioavailability relative to acyclovir [1]: 3 times
Nc1nc2c(ncn2COCCO)c(=O)[nH]1 [acyclovir (3Acy·2H2O), 9-[(2-hydroxyethoxy)methyl]guanine, reference compound] | 240.1 °C |  |  | solubility in water ([2]; at 22–25 °C): 1200 to 1600 µg/mL; solubility ([4]; simulated intestinal fluid (SIF), pH 6.8, thermodynamic from solid): 4440 µM and 1000 µg/mL
CCCC[N+](CCCC)(CCCC)CCCC.Nc1nc2c(ncn2COCCO)c(=O)[n-]1 [[N4,4,4,4][Acy] (3), Tetrabutylammonium Acyclovir] |  | 213.7 mg active/mL | 213.7 mg acyclovir active/mL | solubility, acyclovir active ([4]; PBS, pH 7.4): 220(20) mg active/mL; solubility, acyclovir active ([4]; SGF, pH 1.2): 170(20) mg active/mL; solubility, acyclovir active ([4]; SIF, pH 6.8): 140(10) mg active/mL; acyclovir active delivered relative to acyclovir itself ([4]; across the three media (PBS, SIF, SGF), depending on the medium): ca. 150 times
C[N+](C)(C)CCO.Cc1ccc(C(=O)c2ccc(CC(=O)[O-])n2C)cc1 [choline tolmetin] |  |  |  | water solubility of choline salt relative to neutral form [2]: 8000 times
CCCCC(CC)COC(=O)CC(C(=O)OCC(CC)CCCC)S(=O)(=O)O.Nc1nc2c(ncn2COCCO)c(=O)[nH]1 (stereo not drawn) [[H2Acy][Doc] (6), Acyclovir Docusate] | 122.1 °C | 2.948(4) mg active/mL | 2.9 mg acyclovir active/mL | 
CCCCCCCCCCCCCCCC[N+](C)(C)C.Nc1nc2c(ncn2COCCO)c(=O)[n-]1 [[N1,1,1,16][Acy] (4), Hexadecyltrimethylammonium Acyclovir] |  | 101.3(5) mg active/mL | 101.3 mg acyclovir active/mL | 
C[N+](C)(C)CCO.Nc1nc2c(ncn2COCCO)c(=O)[nH]1 [[Cho][Acy] (1), Choline Acyclovir] | 131 °C |  |  | 
